Measured values published in patent US20250115597A1, “TYK2 INHIBITORS AND COMPOSITIONS AND METHODS THEREOF” (LYNK PHARMACEUTICALS CO. LTD., priority 2021, published 2025).
Like-named read-outs stand apart in the source and are kept apart here.

Columns and labels:
[1] = molecular target: T1, Ba/F3-FL-TYK2-P760L cells (Homo sapiens, UniProt P29597, P760L, cells depend on it); assay: Anti-proliferative assay, Ba/F3-FL-TYK2-P760L cells (Cell-Titer Glo); assay type: cell-based; conditions: 72 h, read-out: BaF3-FL-T2P760L IC50
T1 construct: BaF3-FL-T2P760L (nM)
T1 sequence (P29597 whole entry P760L): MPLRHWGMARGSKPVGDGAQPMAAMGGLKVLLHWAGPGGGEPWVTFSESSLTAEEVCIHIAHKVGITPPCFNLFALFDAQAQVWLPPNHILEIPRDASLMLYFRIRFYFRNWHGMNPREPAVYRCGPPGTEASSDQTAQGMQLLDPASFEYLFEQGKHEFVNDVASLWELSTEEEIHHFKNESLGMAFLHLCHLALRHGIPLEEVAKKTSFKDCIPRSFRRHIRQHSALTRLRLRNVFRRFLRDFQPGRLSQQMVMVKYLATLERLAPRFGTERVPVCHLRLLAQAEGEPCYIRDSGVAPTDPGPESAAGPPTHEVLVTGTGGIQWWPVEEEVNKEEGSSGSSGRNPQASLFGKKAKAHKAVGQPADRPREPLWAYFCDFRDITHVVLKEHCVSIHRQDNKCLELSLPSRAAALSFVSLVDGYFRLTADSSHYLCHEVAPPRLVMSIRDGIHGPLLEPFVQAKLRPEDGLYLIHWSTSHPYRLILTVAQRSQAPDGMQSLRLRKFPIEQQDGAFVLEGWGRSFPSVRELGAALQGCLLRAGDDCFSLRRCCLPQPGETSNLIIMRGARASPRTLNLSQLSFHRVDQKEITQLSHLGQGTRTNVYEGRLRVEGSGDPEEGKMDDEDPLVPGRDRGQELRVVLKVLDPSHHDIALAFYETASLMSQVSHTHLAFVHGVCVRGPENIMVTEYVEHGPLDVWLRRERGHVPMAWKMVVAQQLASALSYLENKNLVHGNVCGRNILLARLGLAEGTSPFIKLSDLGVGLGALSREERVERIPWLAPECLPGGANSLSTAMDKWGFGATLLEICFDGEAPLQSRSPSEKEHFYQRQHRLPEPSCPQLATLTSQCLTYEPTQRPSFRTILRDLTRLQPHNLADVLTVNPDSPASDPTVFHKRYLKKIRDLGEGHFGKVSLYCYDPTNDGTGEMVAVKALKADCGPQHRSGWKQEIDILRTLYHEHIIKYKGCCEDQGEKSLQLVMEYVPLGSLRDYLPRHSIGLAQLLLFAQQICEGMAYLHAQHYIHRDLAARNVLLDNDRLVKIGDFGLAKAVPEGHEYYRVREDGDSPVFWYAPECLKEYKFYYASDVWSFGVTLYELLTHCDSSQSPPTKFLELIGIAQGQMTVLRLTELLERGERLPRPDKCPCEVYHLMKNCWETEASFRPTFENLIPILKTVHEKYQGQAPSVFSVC
How it was run: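 Ba/F3 cells made IL-3-independent by TEL-fused or full-length mutant JAK-family kinases, seeded at 2000/well and dosed after 24 h with 9 three-fold dilutions topping at 20 μM. Viability after 72 h at 37 °C, 5% CO2 by Cell-Titer Glo ATP luminescence.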

[2] = Microsomal metabolic stability assay; assay type: in vitro ADME; conditions: pH 7.4, 0.5 mg/mL protein, 1 μM compound
Experimental: Microsomal Metabolic Stability Assay
Microsomes were pre-incubated with test compound or control compounds for 5 min at 37° C. in 100 mM potassium phosphate buffer, pH 7.4, 1.0 mM EDTA. The reaction was initiated by addition of 15 μL of the NADPH regenerating system to 30 μL of each incubation mixture per time point. The final incubation condition was composed of 0.5 mg/mL microsomal protein, 1 μM test article/positive control, 2 mM NADPH. The 0-minute samples were prepared by addition of a 30 μL aliquot of each incubation mixture to 135 μL quench reagent to precipitate proteins. And then a 15 μL aliquot of the NADPH regenerating system was added. At 5, 15, 30 and 45 minutes, the reaction will be stopped by the addition of cold acetonitrile solution containing internal standard. The samples taken at all time points were centrifuged at 5000×g for 15 minutes. 50 μL of supernatant are taken into 96-well assay plates pre-added with 50 μL ultrapure water, and then analyzed by LC/MS/MS.
Concentrations of test articles, control compounds in the samples were determined by using LC/MS/MS method. Plotting of the chromatograms and peak area integrations are carried out by Analyst (AB Sciex).
n the determination of the in vitro elimination constant (ke) of the control compounds, the analyte/internal standard peak area ratios will be converted to percentage remaining (% Remaining) with the following equation: […]
The slope was measured by the natural logarithm of the percentage of the residual compound and time, T1/2 was calculated according to the following formula.

[3] = human liver microsomes, read-out: Human LM Clint
[4] = human liver microsomes, read-out: Human LM T½
[5] = rat liver microsomes, read-out: Rat LM Clint
[6] = rat liver microsomes, read-out: Rat LM T½
[7] = dog liver microsomes, read-out: Dog LM Clint
[8] = dog liver microsomes, read-out: Dog LM T½

Row | GI50 [1] | microsomal CLint at 1 μM [2, 3] | half-life at 1 μM [2, 4] | microsomal CLint at 1 μM [2, 5] | half-life at 1 μM [2, 6] | microsomal CLint at 1 μM [2, 7] | half-life at 1 μM [2, 8] | SMILES
1 | 124 nM | 74 µL/min/mg | 18.7 min | 30.6 µL/min/mg | 45.3 min |  |  | CNC(=O)c1cnc(Nc2ccc(F)cn2)cc1Nc1cn(C)c2ccn(C)c(=O)c12 [Example 11, 4-((1,5-Dimethyl-4-oxo-4,5-dihydro-1H-pyrrolo[3,2-c]pyridin-3-yl)amino)-6-((5-fluoropyridin-2-yl)amino)-N-methylnicotinamide]
2 | 416 nM | 25.8 µL/min/mg | 53.7 min | 16.4 µL/min/mg | 84.5 min |  |  | CNC(=O)c1cnc(NC(=O)C2CC2)cc1Nc1cn(C)c2ccn(C)c(=O)c12 [Example 12, 6-(Cyclopropanecarboxamido)-4-((1,5-dimethyl-4-oxo-4,5-dihydro-1H-pyrrolo[3,2-c]pyridin-3-yl)amino)-N-methylnicotinamide]
3 | 89.3 nM | 27.8 µL/min/mg | 49.9 min | 126 µL/min/mg | 11 min | 8.46 µL/min/mg | 164 min | CNC(=O)c1cnc(NC(=O)C2CC2)cc1Nc1csc2ccn(C)c(=O)c12 [Example 16, 6-(Cyclopropanecarboxamido)-N-methyl-4-((5-methyl-4-oxo-4,5-dihydrothieno[3,2-c]pyridin-3-yl)amino)nicotinamide]
4 | 38.8 nM | 11.9 µL/min/mg | 117 min | 43.9 µL/min/mg | 31.6 min | 117 µL/min/mg | 11.9 min | [2H]C([2H])([2H])NC(=O)c1cnc(Nc2ccc(F)cn2)cc1Nc1ccc2cnn(CC)c2c1OC [Example 42, 4-((1-Ethyl-7-methoxy-1H-indazol-6-yl)amino)-6-((5-fluoropyridin-2-yl)amino)-N-(methyl-d3)nicotinamide]
5 | 85.2 nM | 9.58 µL/min/mg | 145 min | 48.5 µL/min/mg | 28.6 min | 30.8 µL/min/mg | 45 min | [2H]C([2H])([2H])NC(=O)c1cnc(Nc2ccn(C)n2)cc1Nc1ccc2cnn(CC)c2c1OC [Example 43, 4-((1-Ethyl-7-methoxy-1H-indazol-6-yl)amino)-N-(methyl-d3)-6-((1-methyl-1H-pyrazol-3-yl)amino)nicotinamide]
6 | 160 nM | 51.9 µL/min/mg | 26.7 min | 110 µL/min/mg | 12.6 min | 8.76 µL/min/mg | 158 min | [2H]C([2H])([2H])NC(=O)c1cnc(NC(=O)C2CC2)cc1Nc1cnn2ccn(CC(F)(F)F)c(=O)c12 [Example 45, 6-(Cyclopropanecarboxamido)-N-(methyl-d3)-4-((4-oxo-5-(2,2,2-trifluoroethyl)-4,5-dihydropyrazolo[1,5-a]pyrazin-3-yl)amino)nicotinamide]
7 | 180 nM | 45.2 µL/min/mg | 30.7 min | 80 µL/min/mg | 17.3 min | 25 µL/min/mg | 55.4 min | COC(=O)c1cnc(NC(=O)C2CC2)cc1Nc1ncn2ccn(CC(F)(F)F)c(=O)c12 [Example 47, Methyl 6-(cyclopropanecarboxamido)-4-((8-oxo-7-(2,2,2-trifluoroethyl)-7,8-dihydroimidazo[1,5-a]pyrazin-1-yl)amino)nicotinate]
8 | > 5000 nM | < 11.5 µL/min/mg | > 120 min | < 11.5 µL/min/mg | > 120 min | < 11.5 µL/min/mg | > 120 min | [2H]C([2H])([2H])NC(=O)c1cnc(NC(=O)C2CC2)cc1Nc1ccc2nnc(CC)n2c1OC [Example 58, 6-(Cyclopropanecarboxamido)-4-((3-ethyl-5-methoxy-[1,2,4]triazolo[4,3-a]pyridin-6-yl)amino)-N-(methyl-d3)nicotinamide]
9 | 267 nM |  |  |  |  |  |  | CNC(=O)c1cnc(NC(=O)C2CC2)cc1Nc1csc2c(C)cn(C)c(=O)c12 [Example 188, 6-(Cyclopropanecarboxamido)-4-((5,7-dimethyl-4-oxo-4,5-dihydrothieno[3,2-c]pyridin-3-yl)amino)-N-methylnicotinamide]
10 | 45.7 nM |  |  |  |  |  |  | [2H]C([2H])([2H])NC(=O)c1nnc(NC(=O)C2CC2)cc1Nc1csc2ccn(C)c(=O)c12 [Example 196, 6-(Cyclopropanecarboxamido)-N-(methyl-d3)-4-((5-methyl-4-oxo-4,5-dihydrothieno[3,2-c]pyridin-3-yl)amino)pyridazine-3-carboxamide]
11 | 175 nM |  |  |  |  |  |  | [2H]C([2H])([2H])NC(=O)c1cnc(NC(=O)C2CC2)cc1Nc1cn(C([2H])([2H])[2H])c2ccn(C(C)C(F)(F)F)c(=O)c12 (centres unmarked) [Example 199, 6-(Cyclopropanecarboxamido)-N-(methyl-d3)-4-((1-(methyl-d3)-4-oxo-5-(1,1,1-trifluoropropan-2-yl)-4,5-dihydro-1H-pyrrolo[3,2-c]pyridin-3-yl)amino)nicotinamide]
12 | 327 nM |  |  |  |  |  |  | CCN1C(=O)C(F)(F)c2ccc(Nc3cc(NC(=O)C4CC4)ncc3C(=O)NC)c(OC)c21 [Example 204, 6-(Cyclopropanecarboxamido)-4-((1-ethyl-3,3-difluoro-7-methoxy-2-oxoindolin-6-yl)amino)-N-methylnicotinamide]
13 | > 5000 nM |  |  |  |  |  |  | [2H]C([2H])([2H])N1Cc2nc(NC(=O)C3CC3)cc(Nc3ccc4cnn(CC)c4c3OC)c2C1=O [Example 210, N-(4-((1-ethyl-7-methoxy-1H-indazol-6-yl)amino)-6-(methyl-d3)-5-oxo-6,7-dihydro-5H-pyrrolo[3,4-b]pyridin-2-yl)cyclopropanecarboxamide]
14 | 541 nM |  |  |  |  |  |  | [2H]C([2H])([2H])NC(=O)c1cnc(NC(=O)C2CC2)cc1Nc1ccn2ncc(C([2H])([2H])[2H])c2c1OC [Example 220, 6-(Cyclopropanecarboxamido)-4-((4-methoxy-3-(methyl-d3)pyrazolo[1,5-a]pyridin-5-yl)amino)-N-(methyl-d3)nicotinamide]
15 | 294 nM |  |  |  |  |  |  | [2H]C([2H])([2H])NC(=O)c1cnc(NC(=O)C2CC2)cc1Nc1cn(CCOC2CC2)c2ccn(CC)c(=O)c12 [Example 221, 6-(Cyclopropanecarboxamido)-4-((1-(2-cyclopropoxyethyl)-5-ethyl-4-oxo-4,5-dihydro-1H-pyrrolo[3,2-c]pyridin-3-yl)amino)-N-(methyl-d3)nicotinamide]
16 | 155 nM |  |  |  |  |  |  | [2H]C([2H])([2H])NC(=O)c1cnc(Nc2ccc(F)cn2)cc1Nc1ccn2ncc(C)c2c1OC [Example 222, 6-((5-Fluoropyridin-2-yl)amino)-4-((4-methoxy-3-methylpyrazolo[1,5-a]pyridin-5-yl)amino)-N-(methyl-d3)nicotinamide]
17 | 3270 nM |  |  |  |  |  |  | [2H]C([2H])([2H])NC(=O)c1cnc(NC(=O)C2CC2)cc1Nc1ccc2onc(CC)c2c1OC [Example 233, 6-(Cyclopropanecarboxamido)-4-((3-ethyl-4-methoxybenzo[d]isoxazol-5-yl)amino)-N-(methyl-d3)nicotinamide]
18 | 4070 nM |  |  |  |  |  |  | CCn1ncc2ccc(Nc3ccnc(NC(=O)C4CC4)c3)c(OC)c21 [Example 237, N-(4-((1-ethyl-7-methoxy-1H-indazol-6-yl)amino)pyridin-2-yl)cyclopropanecarboxamide]
19 | > 5000 nM |  |  |  |  |  |  | [2H]C([2H])([2H])NC(=O)c1cnc(NC(=O)C2(C(F)(F)F)CC2)cc1Nc1ccc2cnn(CC)c2c1OC [Example 238, 4-((1-Ethyl-7-methoxy-1H-indazol-6-yl)amino)-N-(methyl-d3)-6-(1-(trifluoromethyl)cyclopropane-1-carboxamido)nicotinamide]
20 | > 5000 nM |  |  |  |  |  |  | CCc1nc2c(Nc3cc(NC(=O)C4CC4)ncc3C(=O)NC)cn(C)c2c(=O)n1C [Example 247, 6-(Cyclopropanecarboxamido)-4-((2-ethyl-3,5-dimethyl-4-oxo-4,5-dihydro-3H-pyrrolo[3,2-d]pyrimidin-7-yl)amino)-N-methylnicotinamide]
21 | 1420 nM |  |  |  |  |  |  | CNC(=O)c1cnc(NC(=O)C2CC2)cc1Nc1ccc2nc3n(c2c1OC)CCC3 [Example 248, 6-(Cyclopropanecarboxamido)-4-((8-methoxy-2,3-dihydro-1H-benzo[d]pyrrolo[1,2-a]imidazol-7-yl)amino)-N-methylnicotinamide]
